Results: patent US8653096B2, “Chemokine receptor antagonists and methods of use thereof” (Millennium Pharmaceuticals, Inc., priority 2001, dated 2014)

Target: T1, RANTES/MIP-1α chemokine receptor (CCR1) in THP-1 cell membranes (Homo sapiens, UniProt P32246)
T1 construct: Membranes were prepared from THP-1 cells (ATCC #TIB202); host or cells: THP-1 cells (membrane preparation)
T1 sequence (P32246 1-355): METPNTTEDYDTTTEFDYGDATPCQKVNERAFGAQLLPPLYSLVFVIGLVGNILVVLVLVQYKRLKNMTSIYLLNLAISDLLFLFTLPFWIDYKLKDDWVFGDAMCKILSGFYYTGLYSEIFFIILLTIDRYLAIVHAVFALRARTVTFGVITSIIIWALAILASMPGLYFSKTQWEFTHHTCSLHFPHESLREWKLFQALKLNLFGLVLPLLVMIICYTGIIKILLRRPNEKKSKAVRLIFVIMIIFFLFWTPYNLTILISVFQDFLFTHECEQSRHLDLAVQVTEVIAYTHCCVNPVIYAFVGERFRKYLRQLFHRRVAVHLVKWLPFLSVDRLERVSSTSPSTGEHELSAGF
Assay: Receptor binding assay: 125I-RANTES or 125I-MIP-1α binding to THP-1 cell membranes
Conditions: inhibitor concentration required for 50% inhibition of specific binding; 125I-RANTES or 125I-MIP-1α as ligand, THP-1 cell membranes; read-out: IC50
Procedure: Membranes were prepared from THP-1 cells (ATCC #TIB202). Cells were harvested by centrifugation, washed twice with PBS (phosphate-buffered saline), and the cell pellets were frozen at −70 to −85° C. The frozen pellet was thawed in ice-cold lysis buffer consisting of 5 mM HEPES (N-2-hydroxyethylpiperazine-N′-2-ethane-sulfonic acid) pH 7.5, 2 mM EDTA (ethylenediaminetetraacetic acid), 5 μg/ml each aprotinin, leupeptin, and chymostatin (protease inhibitors), and 100 μg/ml PMSF (phenyl methane sulfonyl fluoride—also a protease inhibitor), at a concentration of 1 to 5×10^7 cells/ml. This procedure results in cell lysis. The suspension was mixed well to resuspend all of the frozen cell pellet. Nuclei and cell debris were removed by centrifugation of 400×g for 10 minutes at 4° C. The supernatant was transferred to a fresh tube and the membrane fragments were collected by centrifugation at 25,000×g for 30 minutes at 4° C. The supernatant was aspirated and the pellet was resuspended in freezing buffer consisting of 10 mM HEPES pH 7.5, 300 mM sucrose, 1 μg/ml each aprotinin, leupeptin, and chymostatin, and 10 μg/ml PMSF (approximately 0.1 ml per each 10^8 cells). All clumps were resolved using a minihomogenizer, and the total protein concentration was determined using a protein assay kit (Bio-Rad, Hercules, Calif., cat #500-0002). The membrane solution was then aliquoted and frozen at −70 to −85° C. until needed.
Binding Assays utilized the membranes described above. […] The binding reactions were performed in 60 to 100 μl of a binding buffer consisting of 10 mM HEPES pH 7.2, 1 mM CaCl2, 5 mM MgCl2, and 0.5% BSA (bovine serum albumin), for 60 min at room temperature. The binding reactions were terminated by harvesting the membranes by rapid filtration through glass fiber filters (GF/B or GF/C, Packard) which were presoaked in 0.3% polyethyleneimine. The filters were rinsed with approximately 600 μl of binding buffer containing 0.5 M NaCl, dried, and the amount of bound radioactivity was determined by scintillation counting in a Topcount beta-plate counter.
Specific binding is defined as the total binding minus the non-specific binding; non-specific binding is the amount of cpm still detected in the presence of excess unlabeled Rantes or MIP-1α.

Substance | IC50 [µM]
4-(2-Chlorophenyl)-1-[3-(5,11-dihydro-7-methoxy[1]benzoxepino[2,3-b]pyridin-5-ylidene)propyl]piperidin-4-ol [Example 76] | < 10
4-(3,4-Dichlorophenyl)-1-[3-(5,11-dihydro-7-methoxy[1]benzoxepino[2,3-b]pyridin-5-ylidene)propyl]piperidin-4-ol [Example 79] | < 1
4-(3,4-difluorophenyl)-1-[3-(5,11-dihydro-7-methoxy[1]benzoxepino[2,3-b]pyridin-5-ylidene)propyl]piperidin-4-ol [Example 144] | < 1
4-(3,5-dichlorophenyl)-1-[3-(5,11-dihydro-7-methoxy[1]benzoxepino[2,3-b]pyridin-5-ylidene)propyl]piperidin-4-ol [Example 146] | > 10
4-(3-Chlorophenyl)-1-[3-(5,11-dihydro-7-methoxy[1]benzoxepino[2,3-b]pyridin-5-ylidene)propyl]piperidin-4-ol [Example 75] | < 10
4-(4-Bromophenyl)-1-[3-(5,11-dihydro-7-methoxy[1]benzoxepino[2,3-b]pyridin-5-ylidene)propyl]piperidin-4-ol [Example 60] | < 1
4-(4-Chlorophenyl)-1-[3-(5,11-dihydro [1]benzoxepino[2,3-b]pyridin-5-ylidene)propyl]piperidin-4-ol [Example 53] | < 1
4-(4-Chlorophenyl)-1-[3-(5,11-dihydro-7-(1-butoxy)carbonyl-[1]benzoxepino[2,3-b]pyridin-5-ylidene) propyl]piperidine-4-ol [Example 427] | < 1
4-(4-Chlorophenyl)-1-[3-(5,11-dihydro-7-(1-cyclohexyloxycarbonyloxy)ethyloxycarbonyl[1]benzoxepino[2,3-b]pyridin-5-ylidene)propyl]piperidin-4-ol dihydrochloride [Example 306] | < 1
4-(4-Chlorophenyl)-1-[3-(5,11-dihydro-7-(1-ethoxycarbonyl-1-methylethyl)oxy[1]benzoxepino[2,3-b]pyridin-5-ylidene)propyl]piperidin-4-ol [Example 138] | < 1
4-(4-Chlorophenyl)-1-[3-(5,11-dihydro-7-(1-ethoxycarbonyl-1-methylethyl)oxy[1]benzoxepino[2,3-b]pyridin-5-ylidene)propyl]piperidine [Example 158] | < 1
4-(4-Chlorophenyl)-1-[3-(5,11-dihydro-7-(1-piperidino)methyl[1]benzoxepino[2,3-b]pyridin-5-ylidene)propyl]piperidin-4-ol [Example 277] | < 1
4-(4-Chlorophenyl)-1-[3-(5,11-dihydro-7-(1-propoxy)carbonyl-[1]benzoxepino[2,3-b]pyridin-5-ylidene) propyl]piperidine-4-ol [Example 426] | < 1
4-(4-Chlorophenyl)-1-[3-(5,11-dihydro-7-(1-pyrrolidino)methyl [1]benzoxepino[2,3-b]pyridin-5-ylidene)propyl]piperidin-4-ol [Example 279] | < 1
4-(4-Chlorophenyl)-1-[3-(5,11-dihydro-7-(2,3-dihydroxy)propyl[1]benzoxepino[2,3-b]pyridin-5-ylidene)propyl]piperidin-4-ol [Example 290] | < 1
4-(4-Chlorophenyl)-1-[3-(5,11-dihydro-7-(2-hydroxy)ethyl[1]benzoxepino[2,3-b]pyridin-5-ylidene)propyl]piperidin-4-ol [Example 280] | < 1
4-(4-Chlorophenyl)-1-[3-(5,11-dihydro-7-(2-hydroxyethyl)oxy[1]benzoxepino[2,3-b]pyridin-5-ylidene)propyl]piperidin-4-ol [Example 51] | < 1
4-(4-Chlorophenyl)-1-[3-(5,11-dihydro-7-(2-morpholinoethyl)oxy[1]benzoxepino[2,3-b]pyridin-5-ylidene)propyl]piperidin-4-ol [Example 52] | < 1
